Measurements as given in patent US9381201B2, “Pharmaceutical composition and kit for treating bacterial infections” (priority 2011, dated 2016).

Columns and labels:
[1] = test system: gram-positive microorganisms; conditions: many gram-positive microorganisms; cited from earlier work
[2] = test system: tuberculosis Mycobacterium; conditions: cited from earlier work
[3] = test system: gram-negative bacteria; conditions: a large number of gram-negative bacteria; cited from earlier work
[4] = test system: Streptococcus pyogenes; conditions: Streptococcus pyogenes resistant to penicillin and other antibiotics; cited from earlier work
[5] = test system: Mycobacterium tuberculosis Erdman (ATCC 35801); test: anti-tuberculosis activity on a model of mice infected with Mycobacterium tuberculosis (acute tuberculosis infection); conditions: Rifalazil 2.5 mg/kg/day intraperitoneally, 3 week administration, BALB/c mice
[6] = in vivo; cited from earlier work
[7] = test system: intracellular Mycobacterium tuberculosis; conditions: cited from earlier work

Compound: CO[C@H]1/C=C/O[C@@]2(C)Oc3c(C)c(O)c4c(O)c(c(/C=N/N5CCN(C)CC5)c(O)c4c3C2=O)NC(=O)/C(C)=C\C=C\[C@H](C)[C@H](O)[C@@H](C)[C@@H](O)[C@@H](C)[C@H](OC(C)=O)[C@@H]1C [Rifampicin]
- minimal inhibiting concentration [1]: 1 to 100 ng/mL
- minimal inhibiting concentration [2]: 5 to 500 ng/mL
- minimal inhibiting concentration [3]: 1000 to 10000 ng/mL
- share of Streptococcus pyogenes sensitive [4]: Over 95%

Compound: Rifalazil
- Lowering of micobacterium titers in mice lungs in comparison with the control (CMC) on the 31 day [5]: 87 times
- half-life of elimination [6]: > 100 h

Compound: CO[C@H]1/C=C/O[C@@]2(C)Oc3c(C)c(O)c4c(c3C2=O)C2=NC3(CCN(CC(C)C)CC3)NC2=C(NC(=O)/C(C)=C\C=C\[C@H](C)[C@H](O)[C@@H](C)[C@@H](O)[C@@H](C)[C@H](OC(C)=O)[C@@H]1C)C4=O [Rifabutin]
- active concentration relative to Rifampicin [7]: 2 times less
